How the values were obtained:
[1] = system: larva of Cnaphalocrocis medinalis Guenee; assay: Test against larva of Cnaphalocrocis medinalis Guenee (sprayed paddy rice foliage); assay type: in vivo; conditions: 20 ppm concentration of the active component; second instar larvae; counted after 7 days; 25° C.
How it was run: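 Potted rice (Tamanishiki) sprayed with aqueous dilutions of compound at the prescribed concentration; air-dried leaf pieces placed in dishes with five 2nd-instar larvae at 25° C, fresh treated foliage added at days 2 and 4. Mortality counted at day 7, averaged over 2 dishes.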

[2] = system: larva of Spodoptera litura; assay: Test against larva of Spodoptera litura (leaf dip, sweet potato leaves); assay type: in vivo; conditions: 20 ppm concentration of the active component; third instar larvae; counted after 7 days; 25° C.
How it was run: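 Sweet potato leaves were dipped in emulsified compound diluted with water, air-dried, and given to 10 third-instar larvae per dish at 25° C, with fresh leaves added on days 2 and 4. Mortality was counted after 7 days and averaged over 2 dishes.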

Compound | controlling effect, rate of death [1] [%] | controlling effect, rate of death [2] [%]
Cc1cc(-n2nc(C(F)(F)C(F)(F)F)cc2C(F)(F)F)ccc1NC(=O)c1cccc(I)c1C(=O)NC(C)CS(C)(=O)=O (stereo not shown) [compound 475] | 100 | 100
CSCC(C)(C)NC(=O)c1c(I)cccc1C(=O)Nc1ccc(-n2nccc2C(F)(F)C(F)(F)F)cc1C [compound 422] | 100 | 100
Cc1cc(Cn2nc(C(F)(F)F)nc2C(F)(F)F)ccc1NC(=O)c1cccc([N+](=O)[O-])c1C(=O)N[C@@H](C)CS(C)(=O)=O [compound 548] | 100 | 100
CSC[C@H](C)NC(=O)c1c(Cl)cccc1C(=O)Nc1ccc(Cn2cc(C(F)(F)C(F)(F)F)c(C(F)(F)C(F)(F)C(F)(F)F)n2)cc1C [compound 665] | 100 | 100
Cc1cc(Cn2nc(C(F)(F)F)cc2C(F)(F)F)ccc1NC(=O)c1cccc(Br)c1C(=O)NC(C)(C)CS(C)(=O)=O [compound 47] | 100 | 100
Cc1cc(Cn2cc(C(F)(F)C(F)(F)F)c(C(F)(F)C(F)(F)F)n2)ccc1NC(=O)c1cccc(I)c1C(=O)N[C@@H](C)C[S+](C)[O-] (stereo partly shown) [compound 655] | 100 | 100
Cc1cc(Cn2nc(C(F)(F)F)cc2C(F)(F)F)ccc1NC(=O)c1cccc(Cl)c1C(=O)NC(C)CS(C)(=O)=O (stereo not shown) [compound 16] | 100 | 100
CSCC(C)NC(=O)c1c(I)cccc1C(=O)Nc1ccc(-n2nc(C(F)(F)F)cc2C(F)(F)F)cc1C (stereo not shown) [compound 414] | 100 | 100
Cc1cc(Cn2nc(C(F)(F)F)cc2C(F)(F)F)ccc1NC(=O)c1cccc(Br)c1C(=O)NC(C)CS(C)(=O)=O (racemic) [compound 52] | 100 | 100
Cc1cc(Cn2nc(C(F)(F)F)nc2C(F)(F)F)ccc1NC(=O)c1cccc(Br)c1C(=O)NC(C)CS(C)(=O)=O (stereo not shown) [compound 182] | 100 | 100
Cc1cc(Cn2cc(C(F)(F)C(F)(F)F)c(C(F)(F)F)n2)ccc1NC(=O)c1cccc(I)c1C(=O)N[C@@H](C)C[S+](C)[O-] (stereo partly shown) [compound 641] | 100 | 100
Cc1cc(C(C)n2nc(C(F)(F)F)cc2C(F)(F)F)ccc1NC(=O)c1cccc(I)c1C(=O)N[C@@H](C)CS(C)(=O)=O (stereo partly shown) [compound 564] | 100 | 100
Cc1cc(Cn2nc(C(F)(F)F)nc2C(F)(F)F)ccc1NC(=O)c1cccc([N+](=O)[O-])c1C(=O)N[C@@H](C)C[S+](C)[O-] (stereo partly shown) [compound 547] | 100 | 100
Cc1cc(-c2cc(OC(F)F)n(C(F)F)n2)ccc1NC(=O)c1cccc(I)c1C(=O)NC(C)CS(C)(=O)=O (stereo not shown) [compound 520] | 100 | 100
CSCC(C)NC(=O)c1c(I)cccc1C(=O)Nc1ccc(-c2cc(OC(F)F)n(C(F)F)n2)cc1C (stereo not shown) [compound 518] | 100 | 100
Cc1cc(-n2nc(C(F)(F)F)cc2C(F)(F)F)ccc1NC(=O)c1cccc(I)c1C(=O)NC(C)CS(C)(=O)=O (stereo not shown) [compound 417] | 100 | 100

Compound | controlling effect, rate of death [1] [%] | controlling effect, rate of death [2] [%]
CSC[C@H](C)NC(=O)c1c(Cl)cccc1C(=O)Nc1ccc(Cn2cc(C(F)(F)C(F)(F)C(F)(F)F)c(C(F)(F)F)n2)cc1C [compound 643] | 100 | 100
Cc1cc(Cn2cc(C(F)(F)C(F)(F)C(F)(F)F)c(C(F)(F)C(F)(F)F)n2)ccc1NC(=O)c1cccc(I)c1C(=O)N[C@@H](C)C[S+](C)[O-] (stereo partly shown) [compound 661] | 100 | 100
Cc1cc(Cn2nc(C(F)(F)F)nc2C(F)(F)F)ccc1NC(=O)c1cccc(I)c1C(=O)NC(C)C [compound 210] | 100 | 100
CSC[C@H](C)NC(=O)c1c(OS(C)(=O)=O)cccc1C(=O)Nc1ccc(-n2nc(C(F)(F)F)cc2C(F)(F)F)cc1C [compound 492] | 100 | 100
CSC[C@H](C)NC(=O)c1c(I)cccc1C(=O)Nc1ccc(C(C)n2nc(C(F)(F)F)cc2C(F)(F)F)cc1C (stereo partly shown) [compound 562] | 100 | 100
Cc1cc(Cn2nc(C(F)(F)F)cc2C(F)(F)F)ccc1NC(=O)c1cccc(OS(C)(=O)=O)c1C(=O)NC(C)CS(C)(=O)=O (stereo not shown) [compound 132] | 100 | 100
Cc1cc(C(C)n2nc(C(F)(F)C(F)(F)F)nc2C(F)(F)F)ccc1NC(=O)c1cccc(Cl)c1C(=O)N[C@@H](C)CS(C)(=O)=O (stereo partly shown) [compound 580] | 100 | 100
CSC[C@H](C)NC(=O)c1c(I)cccc1C(=O)Nc1ccc(Cn2cc(C(F)(F)C(F)(F)C(F)(F)C(F)(F)F)c(C(F)(F)C(F)(F)F)n2)cc1C [compound 664] | 100 | 100
Cc1cc(-c2cc(C(F)(F)F)nn2CC(F)(F)F)ccc1NC(=O)c1cccc(I)c1C(=O)NC(C)CS(C)(=O)=O (stereo not shown) [compound 508] | 100 | 100
Cc1cc(Cn2nc(C(F)(F)F)cc2C(F)(F)F)ccc1NC(=O)c1cccc([N+](=O)[O-])c1C(=O)N[C@@H](C)CS(C)(=O)=O [compound 545] | 100 | 100
Cc1cc(Cn2nc(C(F)(F)C(F)(F)F)nc2C(F)(F)F)ccc1NC(=O)c1cccc(I)c1C(=O)NC(C)CS(C)(=O)=O (stereo not shown) [compound 231] | 100 | 100
Cc1cc(Cn2nc(C(F)(F)F)nc2C(F)(F)F)ccc1NC(=O)c1cccc(Cl)c1C(=O)NC(C)C[S+](C)[O-] (stereo not shown) [compound 142] | 100 | 100
CSCC(C)NC(=O)c1c(Cl)cccc1C(=O)Nc1ccc(-n2nc(C(F)(F)F)cc2C(F)(F)F)cc1C (stereo not shown) [compound 318] | 100 | 100
CSC[C@H](C)NC(=O)c1c(Cl)cccc1C(=O)Nc1ccc(C(C)n2nc(C(F)(F)F)nc2C(F)(F)C(F)(F)F)cc1C (stereo partly shown) [compound 574] | 100 | 100
Cc1cc(Cn2nc(C(F)(F)C(F)(F)F)nc2C(F)(F)F)ccc1NC(=O)c1cccc(Cl)c1C(=O)NC(C)C[S+](C)[O-] (stereo not shown) [compound 155] | 100 | 100
Cc1cc(Cn2nc(C(F)(F)F)cc2C(F)(F)F)ccc1NC(=O)c1cccc(Cl)c1C(=O)NC(C)(C)CS(C)(=O)=O [compound 10] | 100 | 100
